The record followed here is patent publication US5428168A, “Lactol PAF antagonists” (British Biotech Pharmaceuticals Limited, priority 1990, dated 1995).

Assay [1] has as its system PAF-induced hypotension in the rat. The experiment in a line: Reversal of PAF-induced hypotension in anaesthetised rats. It is filed as in vivo, rat (male Sprague-Dawley). The conditions noted are these: for inhibition of PAF-induced hypotension: @ 1 mg/kg i.v.; for ED50: iv, i.v. bolus, PAF 100 ng/kg/min i.v., straight line interpolation, read-out: ED50 (dose to cause 50% reversal of the hypotensive PAF response). The procedure: Male Sprague-Dawley rats (300-400 g) were anaesthetised with a mixture of sodium pentobarbitone, 22.5 mg·kg^-1 and thiopental 62.5 mg·kg^-1. Through a midline incision in the neck, the trachea was cannulated and the animals breathed spontaneously. A carotid artery was cannulated for the measurement of blood pressure and this signal was used to trigger a rate meter to measure heart rate. Both jugular veins were cannulated: one for the infusion of PAF and the other for the bolus administration of test compounds.
PAF, 100 ng·kg^-1 .min^-1 was infused i.v. until a sustained fall in mean blood pressure of 50 mmHg was achieved. […] The peak of this reversal was measured and the dose to cause a 50% reversal of the hypotensive PAF response (ED50) calculated by straight line interpolation and the results are presented in Table 2.

For assay [2], the target named is T1, PAF receptor (Homo sapiens, UniProt P25105).
T1 construct: Platelet concentrates were obtained from a hospital blood bank; from tissue; host or cells: human platelets (plasma membrane fraction of lysed platelets from hospital blood bank concentrates)
Nature of the assay: Inhibition of [3H]-PAF receptor binding to human platelet plasma membrane (isotopic labelling and filtration). The conditions noted are these: human platelet membranes, 0.5 nM [3H]-PAF, 0° C., 1 hour. As for the experimental part:
Compounds of general formula I inhibit PAF-induced functions in both the cellular and tissue levels by changing the PAF binding to its specific receptor site. The ability of compounds of general formula I to inhibit the binding of PAF to its specific receptor binding site on human platelet plasma membranes was measured according to the pharmacological example. […] Platelet concentrates were obtained from a hospital blood bank. These platelet concentrates (500-2500 ml.) were centrifuged at 800 rpm for 10 minutes in a SORVALL RC3B centrifuge to remove the red blood cells present. (The word SORVALL is a trade mark.) The supernatant was subsequently centrifuged at 3,000 rpm in a SORVALL RC3B centrifuge to pellet the platelets present. The platelet rich pellets were resuspended in a minimum volume of buffer (150 mM NaCl, 10 mM Tris, 2 mM EDTA, pH 7.5) and layered onto Ficoll-Paque gradients, 9 ml platelet concentrate to 2 ml Ficoll, and centrifuged at 1,900 rpm for 15 minutes in a SORVALL RT6000 centrifuge. This step removes the residual red blood cells and other nonspecific material such as lymphocytes from the preparation. The platelets which form a band between the plasma and the Ficoll were removed, resuspended in the above buffer and centrifuged at 3,000 rpm for 10 minutes in a SORVALL RT6000 centrifuge. The pelleted platelets were resuspended in buffer (10 mM Tris, 5mM MgCl2, 2 mM EDTA, pH 7.0), snap freezed in liquid N2 and allowed to thaw slowly at room temperature in order to lyse the platelets. The latter step was repeated at least 3 times to ensure proper lysis. The lysed platelets were centrifuged at 3,000 rpm for 10 minutes in a SORVALL RT6000 centrifuge and resuspended in buffer. The latter step was repeated twice in order to remove any cytoplasmic proteins which may hydrolyse the […]. The prepared platelet membranes may be stored at -70° C. After thawing the prepared membranes were centrifuged in a SORVALL RT6000 at 3,000 rpm for 10 minutes and resuspended in assay buffer. The assay was conducted by preparing a series of Tris-buffered solutions of the selected antagonist of predetermined concentrations. […] Incubation was initiated by the addition of 100 μg of the isolated membrane fraction to each of the above solutions at 0° C. […] (The word WHATMAN is a trade mark.) The residue in each case was rapidly washed 4 times with 5 ml cold (4° C.) Tris-buffer solution. […] % Inhibition=[(TB-TBA)/SB]x100 where the specific binding SB=TB-NSB […]

In assay [3] the test system is endotoxin induced hypotension in the rat. Nature of the assay: Reversal of endotoxin induced hypotension in anaesthetised rats. The class given is in vivo. Particulars: iv, i.v. bolus, E. coli endotoxin 0111:B4, straight line interpolation, read-out: ED50 (dose resulting in 50% reversal of endotoxin induced hypotension). The procedure:
Rats were anaesthetised with a mixture of sodium pentobarbitone, 22.5 mg·kg^-1, and thiopental, 62.5 mg·kg^-1. The animals breathed spontaneously, air enriched with oxygen, and a carotid artery was cannulated for the measurement of blood pressure and heart rate. […] Test compounds were administered i.v. via the other jugular vein as a bolus.

Assay [4] has as its system PAF-induced bronchoconstriction in the guinea pig. The experiment in a line: Reversal of PAF-induced bronchoconstriction in anaesthetised guinea-pigs (modified Konzett-Rossler). It is filed as in vivo, guinea-pig (male Dunkin-Hartley). Particulars: Cavia porcellus, iv, PAF 40 ng/kg/min i.v., read-out: ED50 (dose resulting in 50% reversal of PAF-induced bronchoconstriction). The procedure:
The inhibition of PAF induced bronchoconstriction was measured in anaesthetised artificially ventilated guinea-pigs (450-500 g) using a modified version of the Konzett-Rossler technique (Konzett M and Rossler R, Naunym-Schmiedeb. Arch. Exp. Pathol. Pharmakol., 1940, 197, 71). Male Dunkin-Hartley guinea-pigs were anaesthetised with urethane, 1.6 g·kg^-1. Through a midline neck incision, the trachea was cannulated and the animal ventilated with a constant tidal volume set between 5 and 15 ml, to give a tracheal inflation pressure of 15 mmHg at a rate of 40 per minute. A carotid artery was cannulated for the measurement of blood pressure and heart rate and both jugular veins were cannulated, one for the infusion of PAF and the other for the administration of test compounds. PAF, 40 ng·kg^-1 ·min^-1, was infused i.v. to produced a 100% increase in tracheal inflation pressure, and bronchoconstrictor effects were determined.

T1 sequence (P25105 whole entry): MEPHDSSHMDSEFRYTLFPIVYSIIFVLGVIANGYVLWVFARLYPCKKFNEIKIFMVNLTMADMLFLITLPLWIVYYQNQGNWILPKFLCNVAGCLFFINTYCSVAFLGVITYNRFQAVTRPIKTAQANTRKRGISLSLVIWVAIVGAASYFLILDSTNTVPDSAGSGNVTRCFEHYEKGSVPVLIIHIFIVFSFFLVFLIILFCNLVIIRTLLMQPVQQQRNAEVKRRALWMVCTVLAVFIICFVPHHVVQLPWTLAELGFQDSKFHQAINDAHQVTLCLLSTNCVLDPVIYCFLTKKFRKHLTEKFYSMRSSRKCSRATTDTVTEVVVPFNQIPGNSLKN

The term ED50 denotes the midpoint of the dose-response relation. Broadly, the IC50 is the concentration at which inhibition is half-maximal. A higher IC50 goes with a need for much substance. Regarding `COc1ccc([C@H]2CC[C@H](OCCCc3ccc[n+](C)c3)O2)cc1OC` (relative stereo) [Comparative Example A, trans-O-(3-(3-N-methylpyridyl)propyl)-5-(3,4-dimethoxyphenyl)-gamma-butyrolactol ether iodide, reference compound], in assay [1], the “inhibition of PAF-induced hypotension” value was 31% and the 50% effective dose (ED50) is more than 1000 µg/kg. Further, in assay [2], the IC50 stood at 3000 nM.

For the molecule `COc1ccc([C@H]2CC[C@@H](OCCCc3ccc[n+](C)c3)O2)cc1OC` (relative stereo) [Comparative Example B, cis-O-(3-(3-N-methylpyridyl)propyl)-5-(3,4-dimethoxyphenyl)-gamma-butyrolactol ether iodide, reference compound], in assay [1], the “inhibition of PAF-induced hypotension” value stood at 10% and the ED50 is more than 1000 µg/kg. In addition, the IC50 in assay [2] was 1000 nM.

Regarding `COc1ccc([C@H]2CC[C@H](OCCCc3cccnc3)O2)cc1OC` (relative stereo) [Example 1A, trans-O-(3-(3-pyridyl)propyl)-5-(3,4-dimethoxyphenyl)-gamma-butyrolactol ether], the ED50 in assay [1] was found to be 27 µg/kg. The molecule further gave an IC50 in assay [2] of 4000 nM.

Take `COc1ccc([C@H]2CC[C@@H](OCCCc3cccnc3)O2)cc1OC` (relative stereo) [Example 1B, cis-O-(3-(3-pyridyl)propyl)-5-(3,4-dimethoxyphenyl)-gamma-butyrolactol ether]: the 50% effective dose (ED50) in assay [1] stood at 9 µg/kg; in assay [3] it was 18 µg/kg; in assay [4], 2.1 µg/kg.

In turn, `COc1ccc([C@H]2CC[C@H](OCCCn3c(C)nc4cnccc43)O2)cc1OC` (relative stereo) [Example 30B, O-(3-(1H-2-Methylimidazo[4,5-c]pyridyl)propyl)-5-(3,4-dimethoxyphenyl)-gamma-butyrolactol ether] yielded a 50% inhibitory concentration (IC50) in assay [2] of 7 nM. For the same molecule, the ED50 in assay [3] came out at 7 µg/kg.

As to `COc1ccc(C2CCC(OCc3csc(-c4cccnc4)n3)O2)cc1OC` (centres unmarked) [Example 27, O-((2-(3-Pyridyl)-4-thiazolyl)methyl)-5-(3,4-dimethoxyphenyl)-gamma-butyrolactol ether], the ED50 in assay [1] stood at 120 µg/kg. Moreover, in assay [2], the IC50 worked out at 10000 nM.

Consider `COc1ccc(C2CCC(OCCCn3c(C)nc4cnccc43)O2)cc1OC` (centres unmarked) [Example 30, O-(3-(1H-2-Methylimidazo[4,5-c]pyridyl)propyl)-5-(3,4-dimethoxyphenyl)-gamma-butyrolactol ether], for which the figures for the ED50 in assay [1] and in assay [4] were 1 µg/kg and 0.4 µg/kg, respectively. In addition, the half-inhibitory concentration (IC50) in assay [2] was determined as 15 nM.

Take `COc1ccc(C2CCC(OCCCCn3c(C)nc4cnccc43)O2)cc1OC` (centres unmarked) [Example 31, O-(4-(1H-2-Methylimidazo[4,5-c]pyridyl)butyl)-5-(3,4-dimethoxyphenyl)-gamma-butyrolactol ether]: in assay [1], the ED50 was 3 µg/kg.

With `Cc1nc2cnccc2n1CCCOC1CCC(c2ccc(F)cc2)O1` (centres unmarked) [Example 33, O-(3-(1H-2-Methylimidazo[4,5-c]pyridyl)propyl)-5-(4-fluorophenyl)-gamma-butyrolactol ether], the ED50 in assay [1] was 1 µg/kg. Also, the 50% inhibitory concentration (IC50) in assay [2] came to 7 nM.

As to `Cc1nc2cnccc2n1CCCOC1CCC(c2ccc(Br)cc2)O1` (centres unmarked) [Example 34, O-(3-(1H-2-Methylimidazo[4,5-c]pyridyl)propyl)-5-(4-bromophenyl)-gamma-butyrolactol ether], the IC50 in assay [2] was found to be 10 nM.

Take `Cc1nc2cnccc2n1CCCOC1CCC(c2ccc(Cl)c(Cl)c2)O1` (centres unmarked) [Example 35, O-(3-(1H-2-Methylimidazo[4,5-c]pyridyl)propyl)-5-(3,4-dichlorophenyl)-gamma-butyrolactol ether]: the 50% effective dose (ED50) in assay [1] was 2 µg/kg. The same molecule gave an IC50 in assay [2] of 5 nM.

For `COc1ccc(C2CCC(OCCCn3c(C)nc4cnccc43)O2)cc1Cl` (centres unmarked) [Example 36, O-(3-(1H-2-Methylimidazo[4,5-c]pyridyl)propyl)-5-(3-chloro-4-methoxyphenyl)-gamma-butyrolactol ether], in assay [1], the 50% effective dose (ED50) worked out at 2 µg/kg. The IC50 in assay [2] was determined as 3 nM.
